This is an account of results in patent US6350764B2, “Heteroaryl aminoguanidines and alkoxyguanidines and their use as protease inhibitors” (3-Dimensional Pharmaceuticals, Inc., priority 1997, dated 2002).

Format in all cases: biochemical
Test [1] addresses T1, human α-thrombin (Homo sapiens, UniProt P00734).
T1 construct: Purified human a-thrombin was diluted into assay buffer; purchased Enzyme Research Laboratories (South Bend)
Nature of the test: In vitro inhibition of purified enzymes: thrombin, hydrolysis of N-succinyl-Ala-Ala-Pro-Arg-p-nitroanilide. The settings on record: 37° C., pH 7.5. An excerpt: (§1) Reagents: All buffer salts were obtained from Sigma Chemical Company (St. Louis, Mo.), and were of the highest purity available. The enzyme substrates, N-benzoyl-Phe-Val-Arg-p-nitroaniide (Sigma B7632) N-benzoyl-Ile-Glu-Gly-Arg-p-nitroanilide hydrochloride (Sigma B2291), N-p-Tosyl-Gly-Pro-Lys-p-nitroanilide (Sigma T6140), N-succinyl-Ala-Ala-Pro-Phe-p-nitroanilide (Sigma S7388) and N-CBZ-Val-Gly-Arg-p-nitroanilide (Sigma C7271) were obtained from Sigma.
(§2) Human α-thrombin, human factor Xa and human plasmin were obtained from Enzyme Research Laboratories (South Bend, Id.). Bovine α-chymotrypsin (Sigma C4129), bovine trypsin (Sigma T8642) and human kidney cell urokinase (Sigma U5004) were obtained from Sigma. Human leukocyte elastase was obtained from Elastin Products (Pacific, Mo.).
Ki Determinations: All assays are based on the ability of the test compound to inhibit the enzyme catalyzed hydrolysis of a peptide p-nitroanilide substrate. […] The final concentrations for each of the substrates is listed below. In general, substrate concentrations are lower than the experimentally determined value for Km. Test compounds are prepared as a 1.0 mg/ml solution in DMSO. Dilutions are prepared in DMSO yielding 8 final concentrations encompassing a 200 fold concentration range. Enzyme solutions are prepared at the concentrations listed below in assay buffer.
(§3) Reactions were initiated by the addition of a […] aliquot of enzyme and the absorbance increase at 405 nm is recorded for 15 minutes. Data corresponding to less than 10% of the total substrate hydrolysis were used in the calculations. The ratio of the velocity (rate of change in absorbance as a function of time) for a sample containing no test compound is divided by the velocity of a sample containing test compound, and is plotted as a function of test compound concentration. The data are fit to a linear regression, and the value of the slope of the line calculated. The inverse of the slope is the experimentally determined Ki value.
Thrombin: Thrombin activity was assessed as the ability to hydrolyze the substrate N-succinyl-Ala-Ala-Pro-Arg-p-nitroanilide. […] Final reagent concentrations were: [thrombin]=0.5 nM, [substrate N-succinyl-Ala-Ala-Pro-Arg-p-nitroanilide]=32 mM.

The target of test [2] is T2, bovine α-chymotrypsin (Bos taurus, UniProt P00766).
T2 construct: Bovine α-chymotrypsin (Sigma C4129); purchased Sigma C4129
The experiment in a line: In vitro inhibition of purified enzymes: chymotrypsin, hydrolysis of N-succinyl-Ala-Ala-Pro-Phe-p-nitroanilide.
From the text: as §1, with “Sigma. N-succinyl-Ala-Ala-Pro-Arg-p-nitroanilide (BACHEM L-1720) and N-succinyl-Ala-Ala-Pro-Val-p-nitroanilide (BACHEM L-1770) were obtained from BACHEM (King of Prussia, Pa.).” for “Sigma.”
as §2
(§4) Ki Determinations: All assays are based on the ability of the test compound to inhibit the enzyme catalyzed hydrolysis of a peptide p-nitroanilide substrate. In atypical Ki determination, substrate is prepared in DMSO, and diluted into an assay buffer consisting of 50 mM HEPES, 200 mM NaCl, pH 7.5. The final concentrations for each of the substrates is listed below. In general, substrate concentrations are lower than the experimentally determined value for Km. Test compounds are prepared as a 1.0 mg/ml solution in DMSO. Dilutions are prepared in DMSO yielding 8 final concentrations encompassing a 200 fold concentration range. Enzyme solutions are prepared at the concentrations listed below in assay buffer.
as §3, with “In a typical Ki determination, into each well of a 96 well plate is pipetted […] of substrate solution, […] of test compound solution, and the plate allowed to thermally equilibrate at 37° C. in a Molecular Devices plate reader for>15 minutes. Reactions” for “Reactions”
Chymotrypsin: Chymotrypsin activity was assessed as the ability to hydrolyze N-succinyl-Ala-Ala-Pro-Phe-p-nitroanilide. […] Final DMSO concentration was 4.3%. Purified bovine chymotrypsin was diluted into assay buffer to a concentration of 81 nM. Final reagent concentrations were: [Chymotrypsin]=2.7 nM, [N-succinyl-Ala-Ala-Pro-Phe-p-nitroanilide]=14 mM.

In test [3] the target is T3, human leukocyte elastase (Homo sapiens, UniProt P08246).
T3 construct: purchased Elastin Products (Pacific, Mo.)
T3 sequence (P08246 30-247 limits assumed): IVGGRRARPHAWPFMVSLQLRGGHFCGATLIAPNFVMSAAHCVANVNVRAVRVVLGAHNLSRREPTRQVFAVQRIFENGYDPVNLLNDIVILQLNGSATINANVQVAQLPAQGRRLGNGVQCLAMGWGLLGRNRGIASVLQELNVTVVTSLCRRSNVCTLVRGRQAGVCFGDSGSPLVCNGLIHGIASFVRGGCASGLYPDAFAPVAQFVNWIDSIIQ
The experiment in a line: In vitro inhibition of purified enzymes: elastase, hydrolysis of N-succinyl-Ala-Ala-Pro-Val-p-nitroanilide.
From the text: as §1, with “Sigma. N-succinyl-Ala-Ala-Pro-Arg-p-nitroanilide (BACHEM L-1720) and N-succinyl-Ala-Ala-Pro-Val-p-nitroanilide (BACHEM L-1770) were obtained from BACHEM (King of Prussia, Pa.).” for “Sigma.”
as §2, §4
as §3, with “In a typical Ki determination, into each well of a 96 well plate is pipetted […] of substrate solution, […] of test compound solution, and the plate allowed to thermally equilibrate at 37° C. in a Molecular Devices plate reader for>15 minutes. Reactions” for “Reactions”
Elastase: Elastase activity was assessed as the ability to hydrolyze N-succinyl-Ala-Ala-Pro-Val-p-nitroanilide. Substrate solutions were prepared at a concentration of 19 mM (19 mM<<Km=89 mM) in assay buffer. Final DMSO concentration was 4.3%. Purified human leukocyte elastase was diluted into assay buffer to a concentration of 750 nM. Final reagent concentrations were: [Elastase]=25 nM, [N-succinyl-Ala-Ala-Pro-Val-p-nitroanilide]=19 mM.

In test [4] the target is T4, human factor Xa (Homo sapiens, UniProt P00742).
T4 construct: purchased Enzyme Research Laboratories (South Bend)
Nature of the test: In vitro inhibition of purified enzymes: Factor X [FXa], hydrolysis of N-benzoyl-Ile-Glu-Gly-Arg-p-nitroanilide. Conditions: for Ki: 37° C., pH 7.5.
From the text: as §1, with “Sigma. N-succinyl-Ala-Ala-Pro-Arg-p-nitroanilide (BACHEM L-1720) and N-succinyl-Ala-Ala-Pro-Val-p-nitroanilide (BACHEM L-1770) were obtained from BACHEM (King of Prussia, Pa.).” for “Sigma.”
as §2, §4
as §3, with “In a typical Ki determination, into each well of a 96 well plate is pipetted […] of substrate solution, […] of test compound solution, and the plate allowed to thermally equilibrate at 37° C. in a Molecular Devices plate reader for>15 minutes. Reactions” for “Reactions”
Factor X [FXa]: FXa activity was assessed as the ability to hydrolyze the substrate N-benzoyl-Ile-Glu-Gly-Arg-p-nitroanilide hydrochloride. […] Final DMSO concentration was 4.3%. Purified activated human Factor X was diluted into assay buffer to a concentration of 300 nM. Final reagent concentrations were: [FXa]=10 nM, [N-benzoyl-Ile-Glu-Gly-Arg-p-nitroanilide hydrochloride]=51 mM.

For test [5], the target named is T5, human plasmin (Homo sapiens, UniProt P00747).
T5 construct: Purified human plasmin was diluted into assay buffer; purchased Enzyme Research Laboratories (South Bend)
Nature of the test: In vitro inhibition of purified enzymes: plasmin, hydrolysis of N-p-Tosyl-Gly-Pro-Lys-p-nitroanilide.
From the text: as §1, with “Sigma. N-succinyl-Ala-Ala-Pro-Arg-p-nitroanilide (BACHEM L-1720) and N-succinyl-Ala-Ala-Pro-Val-p-nitroanilide (BACHEM L-1770) were obtained from BACHEM (King of Prussia, Pa.).” for “Sigma.”
as §2, §4
as §3, with “In a typical Ki determination, into each well of a 96 well plate is pipetted […] of substrate solution, […] of test compound solution, and the plate allowed to thermally equilibrate at 37° C. in a Molecular Devices plate reader for>15 minutes. Reactions” for “Reactions”
Plasmin: Plasmin activity was assessed as the ability to hydrolyze the N-p-Tosyl-Gly-Pro-Lys-p-nitroanilide. Substrate solutions were prepared at a concentration of 37 mM (37 mM<<Km=243 mM) in assay buffer. Final DMSO concentration was 4.3%. Purified human plasmin was diluted into assay buffer to a concentration of 240 nM. Final reagent concentrations were: [Plasmin]=8 nM, [N-p-Tosyl-Gly-Pro-Lys-p-nitroanilide]=37 mM.

The target of test [6] is T6, bovine trypsin (Bos taurus, UniProt P00760).
T6 construct: Purified bovine trypsin was diluted into assay buffer; purchased Sigma T8642
T6 sequence (P00760 24-246): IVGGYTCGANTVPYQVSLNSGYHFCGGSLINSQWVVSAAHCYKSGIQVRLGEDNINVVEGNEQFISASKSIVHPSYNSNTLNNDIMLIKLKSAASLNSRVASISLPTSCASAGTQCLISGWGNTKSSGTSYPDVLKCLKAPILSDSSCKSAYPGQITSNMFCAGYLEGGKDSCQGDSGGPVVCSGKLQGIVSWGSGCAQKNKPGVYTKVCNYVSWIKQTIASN
The experiment in a line: In vitro inhibition of purified enzymes: trypsin, hydrolysis of N-benzoyl-Phe-Val-Arg-p-nitroanilide.
From the text: as §1, with “Sigma. N-succinyl-Ala-Ala-Pro-Arg-p-nitroanilide (BACHEM L-1720) and N-succinyl-Ala-Ala-Pro-Val-p-nitroanilide (BACHEM L-1770) were obtained from BACHEM (King of Prussia, Pa.).” for “Sigma.”
as §2, §4
as §3, with “In a typical Ki determination, into each well of a 96 well plate is pipetted […] of substrate solution, […] of test compound solution, and the plate allowed to thermally equilibrate at 37° C. in a Molecular Devices plate reader for>15 minutes. Reactions” for “Reactions”
Trypsin: Trypsin activity was assessed as the ability to hydrolyze N-benzoyl-Phe-Val-Arg-p-nitroanilide. […] Final DMSO concentration was 4.3%. Purified bovine trypsin was diluted into assay buffer to a concentration of 120 nM. Final reagent concentrations were: [Trypsin]=4 nM, [N-benzoyl-Phe-Val-Arg-p-nitroanilide]=13 mM.

Counter-ions that a name gives are not always drawn.

T5 sequence (P00747 581-810 limits assumed): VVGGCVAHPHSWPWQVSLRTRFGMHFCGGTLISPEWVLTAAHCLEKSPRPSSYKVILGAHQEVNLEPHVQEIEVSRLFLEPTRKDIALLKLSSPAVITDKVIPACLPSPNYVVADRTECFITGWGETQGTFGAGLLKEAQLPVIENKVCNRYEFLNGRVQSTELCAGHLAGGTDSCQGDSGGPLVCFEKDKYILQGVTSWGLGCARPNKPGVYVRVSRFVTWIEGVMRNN
T5 sequence (P00747 97-580 partner limits assumed): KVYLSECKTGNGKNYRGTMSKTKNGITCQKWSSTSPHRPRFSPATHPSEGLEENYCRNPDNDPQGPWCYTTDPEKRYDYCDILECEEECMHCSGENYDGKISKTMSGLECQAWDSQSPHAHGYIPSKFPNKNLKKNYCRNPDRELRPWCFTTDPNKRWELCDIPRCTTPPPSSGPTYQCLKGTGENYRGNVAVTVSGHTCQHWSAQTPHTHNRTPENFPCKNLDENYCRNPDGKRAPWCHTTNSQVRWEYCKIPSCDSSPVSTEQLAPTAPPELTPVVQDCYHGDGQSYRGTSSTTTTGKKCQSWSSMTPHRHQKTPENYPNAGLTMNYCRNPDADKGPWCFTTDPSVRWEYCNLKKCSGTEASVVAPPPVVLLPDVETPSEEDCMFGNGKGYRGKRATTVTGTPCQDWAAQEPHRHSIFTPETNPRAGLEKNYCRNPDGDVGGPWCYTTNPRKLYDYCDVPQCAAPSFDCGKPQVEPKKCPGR
T4 sequence (P00742 235-488 limits assumed): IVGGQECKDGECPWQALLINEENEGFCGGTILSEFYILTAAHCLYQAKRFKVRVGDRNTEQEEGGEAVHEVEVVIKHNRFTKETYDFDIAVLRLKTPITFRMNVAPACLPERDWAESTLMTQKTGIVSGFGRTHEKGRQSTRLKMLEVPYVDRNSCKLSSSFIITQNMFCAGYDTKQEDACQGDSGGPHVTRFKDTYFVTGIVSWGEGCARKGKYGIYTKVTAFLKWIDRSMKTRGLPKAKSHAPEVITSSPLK
T4 sequence (P00742 41-179 partner limits assumed): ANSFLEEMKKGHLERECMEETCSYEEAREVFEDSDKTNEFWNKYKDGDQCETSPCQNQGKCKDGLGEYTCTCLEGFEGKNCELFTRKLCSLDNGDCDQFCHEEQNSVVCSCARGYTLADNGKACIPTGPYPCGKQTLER

With `Cc1ccc(NS(=O)(=O)Cc2ccccc2)c(=O)n1CC(=O)NCCCONC(=N)N.O=C(O)C(F)(F)F` [Example 1, 3-Benzylsulfonylamino-6-methyl-1-[(3-guanidinooxypropyl)aminocarbonylmethyl]-2-pyridinone trifluorocaetate], the affinity in test [1], expressed as Ki, was 53 nM. Moreover, the “% Inhibition Chymo.” value in test [2] (at 24,000 nM) is given as 0 @ %. The “% Inhibition Elastase” value in test [3] (at 24,000 nM) is 0 @ %. Besides, the “% Inhibition FXa” value in test [4] (at 24,000 nM) is given as 0 @ %. The “% Inhibition Plasmin” value in test [5] (at 24,000 nM) is listed as 0 @ %. Besides, in test [6] (at 24,000 nM), the “% Inhibition Trypsin” value is 0 @ %.
Take `Cc1ccc(NS(=O)(=O)c2ccc(I)cc2)c(=O)n1CC(=O)NCCONC(=N)N` [Example 38, 3-(4-Iodophenylsulfonyl)amino-6-methyl-1-[(2-guanidinooxyethyl)aminocarbonylmethyl]-2-pyridinone trifluoroacetate]: the Ki – broadly, a measure of affinity in units of concentration, obtained from inhibition or displacement – in test [1] was 51 nM; in test [4], 420 nM. Also, the inhibition (usually the relative decrease from the control value, in per cent) at 20 µM in test [2] (at 20,000 nM, read-out: % Inhibition Chymo.) is 0%; in test [3] (at 20,000 nM), 0%; in test [5] (at 20,000 nM) it was 0%; in test [6] (at 20,000 nM), 0%.
For the molecule `Cc1ccc(NS(=O)(=O)c2ccccc2[N+](=O)[O-])c(=O)n1CC(=O)NCCONC(=N)N` [Example 71, 3-(2-Nitrophenylsulfonyl)amino-6-methyl-1-[(2-guanidinooxyethyl)aminocarbonylmethyl]-2-pyridinone trifluoroacetate], the Ki is 580 nM in test [1] and 8700 nM in test [4]. For the same molecule, the inhibition at 12 µM in test [2] (at 12,000 nM, read-out: % Inhibition Chymo.) was 0%; in test [3] (at 12,000 nM), 0%; in test [5] (at 12,000 nM), 0%; in test [6] (at 12,000 nM), 0%.
